PubChem BioAssay (NCI)
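Interpolation was linear, between the two tested concentrations surrounding the appropriate level; five concentrations were tested over 48 hours in 96-well plates. GI50: concentration for 50% inhibition of growth. TGI: concentration producing complete growth inhibition.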

Legend:
Test in all cases: DTP human tumour cell line panel, 48 h
[1] = system: K-562 leukemia
[2] = system: HCT-15 colon
[3] = system: MOLT-4 leukemia
[4] = system: TK-10 renal
[5] = system: PC-3 prostate
[6] = system: SK-MEL-5 melanoma
[7] = system: COLO 205 colon
[8] = system: NCI/ADR-RES ovarian
[9] = system: RXF 393 renal
[10] = system: U251 CNS
[11] = system: SF-539 CNS
[12] = system: DU-145 prostate
[13] = system: NCI-H23 lung
[14] = system: UO-31 renal
[15] = system: SN12C renal
[16] = system: CAKI-1 renal
[17] = system: LOX IMVI melanoma
[18] = system: A498 renal
[19] = system: HCC-2998 colon
[20] = system: A549 NSCLC
[21] = system: NCI-H460 lung
[22] = system: HL-60(TB) leukemia
[23] = system: SNB-75 CNS
[24] = system: CCRF-CEM leukemia
[25] = system: NCI-H226 lung
[26] = system: UACC-62 melanoma
[27] = system: SF-268 CNS
[28] = system: EKVX NSCLC
[29] = system: HS 578T breast
[30] = system: BT-549 breast
[31] = system: MCF7 breast
[32] = system: 786-0 renal
[33] = system: UACC-257 melanoma
[34] = system: SR leukemia
[35] = system: IGROV1 ovarian
[36] = system: HOP-92 NSCLC
[37] = system: SW-620 colon
[38] = system: MALME-3M melanoma
[39] = system: MDA-MB-435
[40] = system: OVCAR-5 ovarian
[41] = system: OVCAR-3 ovarian
[42] = system: SK-MEL-28 melanoma
[43] = system: NCI-H522 lung
[44] = system: SK-OV-3 ovarian
[45] = system: RPMI-8226 leukemia
[46] = system: M14 melanoma
[47] = system: OVCAR-4 ovarian
[48] = system: SK-MEL-2 melanoma
[49] = system: SF-295 CNS
[50] = system: T-47D breast
[51] = system: HCT-116 colon
[52] = system: MDA-MB-231 breast
[53] = system: ACHN renal
[54] = system: OVCAR-8 ovarian
[55] = system: HT29 colon
[56] = system: KM12 colon
[57] = system: SNB-19 CNS
[58] = system: HOP-62 NSCLC

SMILES: CCCn1cnc2c(c1=N)C(c1ccc(OC)cc1)c1sc3c(CC)cccc3c1O2 (stereo not given)
- GI50 [1]: 338 nM
- TGI [1]: > 31600 nM
- GI50 [2]: 441 nM
- TGI [2]: 6210 nM
- GI50 [3]: 505 nM
- TGI [3]: 5780 nM
- GI50 [4]: 5130 nM
- TGI [4]: 32400 nM
- GI50 [5]: 551 nM
- TGI [5]: 16900 nM
- GI50 [6]: 578 nM
- TGI [6]: 7280 nM
- GI50 [7]: 844 nM
- TGI [7]: 8270 nM
- GI50 [8]: 389 nM
- TGI [8]: 10000 nM
- GI50 [9]: 272 nM
- TGI [9]: 883 nM
- GI50 [10]: 438 nM
- TGI [10]: 12500 nM
- GI50 [11]: 334 nM
- TGI [11]: 1400 nM
- GI50 [12]: 665 nM
- TGI [12]: 13700 nM
- GI50 [13]: 1270 nM
- TGI [13]: 18100 nM
- GI50 [14]: 714 nM
- TGI [14]: 29900 nM
- GI50 [15]: 867 nM
- TGI [15]: 7600 nM
- GI50 [16]: 476 nM
- TGI [16]: 20600 nM
- GI50 [17]: 685 nM
- TGI [17]: 5430 nM
- GI50 [18]: 334 nM
- TGI [18]: 1410 nM
- GI50 [19]: 1300 nM
- TGI [19]: 6600 nM
- GI50 [20]: 827 nM
- TGI [20]: 20900 nM
- GI50 [21]: 378 nM
- TGI [21]: 4450 nM
- GI50 [22]: 279 nM
- TGI [22]: 1030 nM
- GI50 [23]: 220 nM
- TGI [23]: 1090 nM
- GI50 [24]: 421 nM
- GI50 [25]: 964 nM
- TGI [25]: 11200 nM
- GI50 [26]: 422 nM
- TGI [26]: 19100 nM
- GI50 [27]: 702 nM
- TGI [27]: 26100 nM
- GI50 [28]: 941 nM
- TGI [28]: 20000 nM
- GI50 [29]: 384 nM
- TGI [29]: 5760 nM
- GI50 [30]: 691 nM
- TGI [30]: 16000 nM
- GI50 [31]: 345 nM
- TGI [31]: 11600 nM
- GI50 [32]: 534 nM
- TGI [32]: 12800 nM
- GI50 [33]: 15000 nM
- TGI [33]: > 100000 nM
- GI50 [34]: 319 nM
- TGI [34]: 3230 nM
- GI50 [35]: 612 nM
- TGI [35]: 29400 nM
- GI50 [36]: 1190 nM
- TGI [36]: 11200 nM
- GI50 [37]: 515 nM
- TGI [37]: 14800 nM
- GI50 [38]: 726 nM
- TGI [38]: 21700 nM
- GI50 [39]: 196 nM
- TGI [39]: 479 nM
- GI50 [40]: 2590 nM
- TGI [40]: 17900 nM
- GI50 [41]: 378 nM
- TGI [41]: 2970 nM
- GI50 [42]: 2140 nM
- TGI [42]: 36700 nM
- GI50 [43]: 346 nM
- TGI [43]: 4940 nM
- GI50 [44]: 818 nM
- TGI [44]: 26900 nM
- GI50 [45]: 375 nM
- TGI [45]: 2560 nM
- GI50 [46]: 389 nM
- TGI [46]: 6180 nM
- GI50 [47]: 1350 nM
- TGI [47]: 23500 nM
- GI50 [48]: 608 nM
- TGI [48]: 14700 nM
- GI50 [49]: 392 nM
- TGI [49]: 7240 nM
- GI50 [50]: 518 nM
- TGI [50]: > 49200 nM
- GI50 [51]: 382 nM
- TGI [51]: 4770 nM
- GI50 [52]: 1360 nM
- TGI [52]: 13000 nM
- GI50 [53]: 725 nM
- TGI [53]: 17700 nM
- GI50 [54]: 1010 nM
- TGI [54]: 15800 nM
- GI50 [55]: 512 nM
- TGI [55]: 9090 nM
- GI50 [56]: 445 nM
- TGI [56]: 24900 nM
- GI50 [57]: 478 nM
- TGI [57]: 14600 nM
- GI50 [58]: 553 nM
- TGI [58]: 14800 nM
